This passage reports photoluminescence quantum yield results from the Deep4Chem optical property database.

The structures appear in SMILES notation.

The data set in a line: photoluminescence quantum yield (fraction); solvent given as SMILES.

With `CCCCCCC1(CCCCCC)c2cc(-c3nc(-c4ccc5c(c4)C(CCCCCC)(CCCCCC)c4cc(-n6c7ccc(C(C)(C)C)cc7c7cc(C(C)(C)C)ccc76)ccc4-5)nc(-c4ccc5c(c4)C(CCCCCC)(CCCCCC)c4cc(-n6c7ccc(C(C)(C)C)cc7c7cc(C(C)(C)C)ccc76)ccc4-5)n3)ccc2-c2ccc(-n3c4ccc(C(C)(C)C)cc4c4cc(C(C)(C)C)ccc43)cc21`, the photoluminescence quantum yield was found to be 0.56 (in C1CCOC1), 1 (in CCCCCC), 0.99 (in Cc1ccccc1) and 0.56 (in ClCCl).
Under “in Cc1ccccc1”, `N#Cc1ccccc1N1c2ccccc2C(c2ccccc2)(c2ccccc2)c2ccccc21` registered a photoluminescence quantum yield of 0.33.
Where the note is “in ClCCl”, `COc1ccc(N(c2ccccc2)c2ccc3ccc4c(N(c5ccccc5)c5ccc(OC)cc5)ccc5ccc2c3c54)cc1` displayed a photoluminescence quantum yield of 0.46.
On to `CNc1ncc2nc(C#N)n(Cc3ccccc3)c2n1`, for which the photoluminescence quantum yield reads like this: (in C1COCCO1) 0.61; (in CC#N) 0.58; (in CO) 0.49; (in ClCCl) 0.58.
`c1ccc(/C(=C(\c2ccccc2)c2ccccc2-c2ccc(-c3ccccc3)cc2)c2ccccc2-c2ccc(-c3ccccc3)cc2)cc1` showed a photoluminescence quantum yield (in C1CCOC1) of 0.32.
As to `CCCCCc1c(C(=O)c2ccc3c4c(cccc24)-c2cccc4c2C3CC=C4)c2ccc3cccc4c5cccc6ccc1c(c65)c2c34` (configuration not stated), where the note is “in ClCCl”, the photoluminescence quantum yield was 0.082.
As for `CC(C)(C)c1ccc(-c2c(-c3ccc(-n4c5ccccc5c5ccccc54)cc3)c(C#N)c(-c3ccc(-n4c5ccccc5c5ccccc54)cc3)c(-c3ccc(C(C)(C)C)cc3)c2-c2ccc(C(C)(C)C)cc2)cc1`, the photoluminescence quantum yield (in C1CCOC1) was found to be 0.803.
Consider `c1ccc2c(-c3ccc4sc5ccccc5c4c3)c3ccccc3cc2c1`, for which the photoluminescence quantum yield runs as follows: (in C1CCCCC1) 0.52; (in CC#N) 0.43; (in ClCCl) 0.7.
`CC(C)(C)c1ccc(C2=c3sc(-c4ccc(C(C)(C)C)cc4)cc3=[N+]3C2=Nc2c(-c4ccc(C(C)(C)C)cc4)c4sc(-c5ccc(C(C)(C)C)cc5)cc4n2[B-]3(F)F)cc1` registered a photoluminescence quantum yield (in ClC(Cl)Cl) of 0.12.
Compound `CCN(CC)c1ccc2cc3c([o+]c2c1)/C(=C/Nc1ccccc1)CCC3` gave a photoluminescence quantum yield (in CCO) of 0.18, a photoluminescence quantum yield (in ClC(Cl)Cl) of 0.22 and a photoluminescence quantum yield (in ClCCl) of 0.31.
Regarding `c1ccc(-c2c3c(c(-c4ccccc4)c4cc5ccccc5cc24)Cc2c(c(-c4ccccc4)c4cc5ccccc5cc4c2-c2ccccc2)C3)cc1`, the photoluminescence quantum yield came to 0.27 (in CC#N); 0.28 (in CCCCCC); 0.3 (in CO); 0.61 (in Cc1ccccc1); 0.21 (in ClCCl).
For the compound `O=c1[nH]c(=O)c2nc3ccccc3nc2[nH]1`, the photoluminescence quantum yield (in CC#N) was determined as 0.009.
Compound `CCCC1(CCC)c2cc(-c3ccccc3)ccc2-c2ccc(-c3ccc4c(c3)C(CCC)(CCC)c3cc(-c5ccccc5)ccc3-4)cc21` returned a photoluminescence quantum yield (in C1CCCCC1) of 1.
The compound `CCCCCCCCOc1ccc(-c2c3c4n(c(-c5ccc(OCCCCCCCC)cc5)c3c3n2[B-](F)(F)[n+]2ccccc2N=3)[B-](F)(F)[n+]2ccccc2N=4)cc1` yielded a photoluminescence quantum yield (in ClC(Cl)Cl) of 0.89.
As for `CC1=C(c2cccs2)C2=Cc3c(-c4cccs4)c(C)c(C)n3[B-](F)(F)[N+]2=C1C`, the photoluminescence quantum yield (in CC#N) was 0.52.
`COC(=O)C12N=N[C@](C(=O)OC)(C3C4CCC(C4)C31)[C@@]1(C)C[C@@H]21` (some centres not stated) gave a photoluminescence quantum yield (in CC#N) of 0.043.
Compound `O=c1oc2ccccc2c2c1c(=O)oc1cc(O)cc(O)c12` had a photoluminescence quantum yield (in ClCCl) of 0.1.
`O=P1(c2ccccc2)C(c2cccs2)=C(c2cccs2)c2ccccc21` (configuration not stated) yielded a photoluminescence quantum yield (in C1CCOC1) of 0.006.
`N#CC(/N=C/c1ccccc1O)=C(C#N)/N=C/c1ccccc1O` showed a photoluminescence quantum yield (in CC#N) of 0.017.
`CC(C)(C)C#Cc1cc2c(C#CC(C)(C)C)c(C#CC(C)(C)C)c3cc(C#CC(C)(C)C)cc4c(C#CC(C)(C)C)c(C#CC(C)(C)C)c(c1)c2c34` showed a photoluminescence quantum yield (in ClCCl) of 0.12.
In the case of `C(=C\c1ccc(/C=C/c2c3ccccc3cc3ccccc23)cc1)/c1ccncc1`, the photoluminescence quantum yield (in C1CCOC1) was determined as 0.34.
With `CCOC(=O)C1=C(C(=O)OCC)C2(c3cc(Cl)ccc3-c3ccc(Cl)cc32)C2(/C=C/c3ccccc3)c3cc(OC)c(OC)cc3CCN12` (configuration not stated), the photoluminescence quantum yield (in ClCCl) is 0.00196.
Regarding `CCCCCCOc1ccc(C#Cc2ccc(-c3ccc(-c4ccc(C#Cc5ccc(OCCCCCC)c(OCCCCCC)c5)s4)c4nsnc34)s2)cc1OCCCCCC`, the photoluminescence quantum yield by setting is: (in C1CCCCC1) 0.54; (in CCOC(C)=O) 0.46; (in CN(C)C=O) 0.24; (in COc1ccccc1) 0.48; (in Cc1ccccc1) 0.55; (in ClC(Cl)Cl) 0.43. Also, the photoluminescence quantum yield runs as follows: (in ClCCCl) 0.34; (in ClCCl) 0.35.
For `Cn1c(=O)c(/N=N/c2ccc(/N=N/c3ccc(S(=O)(=O)O)cc3)cc2)c(O)c2ccccc21`, the photoluminescence quantum yield (in CS(C)=O) was determined as 0.05.
In the case of `COC(=O)c1cc(=O)n(C)c2cc(-c3cc(OC)c(OC)c(OC)c3)sc12`, the photoluminescence quantum yield was 0.38 (in CC#N) and 0.53 (in ClCCl).
In the case of `CC1=C(C2=C(C)C(C)=[N+]3C2=Cc2cc(C)c(C)n2[B-]3(F)F)C2=Cc3cc(C)c(C)n3[B-](F)(F)[N+]2=C1C`, under “in ClCCl”, the photoluminescence quantum yield came out at 0.05.
For the setting “in CC#N”, `COc1ccc2cc(/C=C/c3ccccc3)c(=O)oc2c1` gave a photoluminescence quantum yield of 0.71.
In turn, `CCCCCc1c(C)c2c3ccccc3[nH]c2c2ccccc12` showed a photoluminescence quantum yield (in ClCCl) of 0.167.
In turn, `CCCCCCC1(CCCCCC)c2cc(-c3ccc(-c4ccc(-c5ccc(-c6ccc7c(c6)C(CCCCCC)(CCCCCC)c6cc(-n8c9ccc(-n%10c%11ccccc%11c%11ccccc%11%10)cc9c9cc(-n%10c%11ccccc%11c%11ccccc%11%10)ccc98)ccc6-7)s5)c5nsnc45)s3)ccc2-c2ccc(-n3c4ccc(-n5c6ccccc6c6ccccc65)cc4c4cc(-n5c6ccccc6c6ccccc65)ccc43)cc21` returned a photoluminescence quantum yield (in ClCCl) of 0.15.
Under “in ClCCl”, `c1ccc2cc(-c3c4ccccc4c(-c4ccc(-n5c6ccccc6c6ccccc65)cc4)c4ccccc34)ccc2c1` had a photoluminescence quantum yield of 0.76.
The compound `CCOC(=O)c1c2c3c(ccc([N+](=O)[O-])c3c3cc4ccccc4cc13)N(C)C2=O` gave a photoluminescence quantum yield (in CC#N) of 0.41.
For the compound `Cc1ccc(/C2=c3\cc/c(o3)=C(\c3ccc(C)cc3)c3ccc([nH]3)-c3ccc4n3[P-](=O)(=O)[N+]3=C(C=CC3=C4c3ccc[nH]3)c3ccc2[nH]3)cc1`, the photoluminescence quantum yield (in ClC(Cl)Cl) is 0.15.
Consider `CCCCOC(=O)c1cc(Cl)c2c3c(Cl)cc4c5c(cc(Cl)c(c6c(Oc7ccc(C(=O)OC)cc7)cc(C(=O)OCCCC)c1c26)c53)C(=O)N(c1c(C(C)C)cccc1C(C)C)C4=O`, for which the photoluminescence quantum yield (in Cc1ccccc1) amounted to 0.92.
For the compound `CN(C)c1ccc(/C=C/c2cnccn2)cc1`, the photoluminescence quantum yield (in ClCCl) was found to be 0.17.
For `c1ccc(N2c3ccc4ccccc4c3-c3c4ccccc4nc[n+]3[B-]2(c2ccccc2)c2ccccc2)cc1`, the photoluminescence quantum yield (in C1CCC2CCCCC2C1) worked out at 0.07; the photoluminescence quantum yield (in C1CCCCC1) is 0.06; the photoluminescence quantum yield (in CCCCCC) is 0.06; the photoluminescence quantum yield (in CCOC(C)=O) came out at 0.02; the photoluminescence quantum yield (in Cc1ccccc1) worked out at 0.03; the photoluminescence quantum yield (in ClC(Cl)Cl) is 0.01.
